According to patent US20240148821A1, “PHARMACEUTICAL USE OF CYCLIC PEPTIDE COMPOUND” (CHUGAI SEIYAKU KABUSHIKI KAISHA, priority 2021, published 2024):
Numbered stars: 1 amine (or outer) side, 2 acyl side, 3 side chain; on linkers, the order of the positions; unused ones are H or OH. Bridge positions count the residues as written; N and C are the ends. Square brackets hold non-standard residues; d marks the D form. Peptide text beside a SMILES is read from it. * marks the point of attachment. hPhe(3-Cl-4-CF3) = N[C@@H](CCc1ccc(C(F)(F)F)c(Cl)c1)C(=O)O; hPhe(3-F,4-CF3) = N[C@@H](CCc1ccc(C(F)(F)F)c(F)c1)C(=O)O; X71 = O=C([C@H](CCc1ccc(C(F)(F)F)cc1F)N[*:1])[*:2]; X56 = O=C([C@H](CCc1cccc(C(F)(F)F)c1)N[*:1])[*:2]; NMePhe(4-Cl) = CN[C@@H](Cc1ccc(Cl)cc1)C(=O)O; X29 = O=C([C@H](CCc1cc(Cl)ccc1F)N[*:1])[*:2]; NMePhe(4-Me) = CN[C@@H](Cc1ccc(C)cc1)C(=O)O; NMeGly(cPent) = CN[C@H](C(=O)O)C1CCCC1; Phe(3-I) = N[C@@H](Cc1cccc(I)c1)C(=O)O; NMeCha = CN[C@@H](CC1CCCCC1)C(=O)O; Azetidine(3,3-F2) = FC1(F)CN(*)C1; NMeF = CN[C@@H](Cc1ccccc1)C(=O)O; N(CH2CH2)2CF2 = FC1(F)CCN(*)CC1; NMeE = CN[C@@H](CCC(=O)O)C(=O)O; NMeD = CN[C@@H](CC(=O)O)C(=O)O; NMeL = CN[C@@H](CC(C)C)C(=O)O; d(β3hA) = C[C@@H](N)CC(=O)O; Azetidin(1-yl) = C1CN(*)C1; Morpholide = C1CN(*)CCO1; NMeA = CN[C@@H](C)C(=O)O; NMeAib = CNC(C)(C)C(=O)O; Piperidide = C1CCN(*)CC1; Pyrrolidide = C1CCN(*)C1; Ac5c = NC1(C(=O)O)CCCC1; Aze = O=C(O)[C@@H]1CCN1; X80 = FC1(F)CCCN(*)C1; Sar = CNCC(=O)O

The compounds below were run against protein-protein interaction between Kras and SOS1 (biotin-tagged human Kras loaded with GDP, His-tagged human SOS1) (Homo sapiens (Human), UniProt P01116, G12D) (assay: Protein-protein interaction inhibition between Kras and SOS1 (KrasG12D-SOS PPI) using AlphaScreen). Details: not given.
Format: biochemical

| Compound | IC50 [nM] |
| --- | --- |
| CC[C@H](C)[C@@H]1NC(=O)[C@H](CC(C)C)N(C)C(=O)C[C@@H](C(=O)N(C)C)N(C)C(=O)[C@H](C2CCCC2)N(C)C(=O)C2(CCCC2)NC(=O)[C@H](CC(=O)N2CCCC2)N(C)C(=O)[C@H](CCc2ccc(C(F)(F)F)c(Cl)c2)NC(=O)CN(C)C(=O)[C@H](CC2CCCCC2)N(C)C(=O)[C@@H]2CCN2C(=O)[C@H](C)N(C)C1=O [Compound 2097] ([NMeL]I[NMeA][Aze][NMeCha][Sar][hPhe(3-Cl-4-CF3)][NMeD](Pyrrolidide)[Ac5c][NMeGly(cPent)][NMeD]-NMe2; lactam N-11) | 0.57 |
| CC[C@H](C)[C@@H]1NC(=O)[C@H](CC(C)C)N(C)C(=O)C[C@@H](C(=O)N2CCCC(F)(F)C2)N(C)C(=O)[C@H](CC(C)C)NC(=O)C(C)(C)N(C)C(=O)[C@H](Cc2ccc(OC)cc2)NC(=O)[C@H](Cc2cccc(I)c2)NC(=O)CN(C)C(=O)[C@H](Cc2ccc(C)cc2)N(C)C(=O)CN(C)C(=O)CN(C)C1=O [Compound 2099, (3S,9S,12S,18S,27S,30S,34S)-34-(3,3-difluoropiperidine-1-carbonyl)-12-[(3-iodophenyl)methyl]-3,30-diisobutyl-9-[(4-methoxyphenyl)methyl]-1,6,6,7,16,19,22,25,31-nonamethyl-27-[(1S)-1-methylpropyl]-18-(p-tolylmethyl) 1,4,7,10,13,16,19,22,25,28,31-undecazacyclotetratriacontane-2,5,8,11,14,17,20,23,26,29,32-undecone] ([NMeL]I[Sar][Sar][NMePhe(4-Me)][Sar][Phe(3-I)]Y(Me)[NMeAib]L[NMeD]-X80; lactam N-11) | 25 |
| CC[C@H](C)[C@@H]1NC(=O)[C@H](CC(C)C)N(C)C(=O)C[C@@H](C(=O)N(C)C)N(C)C(=O)[C@H](C2CCCC2)N(C)C(=O)C2(CCCC2)NC(=O)[C@H](CC(=O)N2CCCCC2)N(C)C(=O)[C@H](CCc2ccc(C(F)(F)F)c(Cl)c2)NC(=O)CN(C)C(=O)[C@H](CC2CCCCC2)N(C)C(=O)[C@@H]2CCN2C(=O)[C@H](C)N(C)C1=O [Compound 2105] ([NMeL]I[NMeA][Aze][NMeCha][Sar][hPhe(3-Cl-4-CF3)][NMeD](Piperidide)[Ac5c][NMeGly(cPent)][NMeD]-NMe2; lactam N-11) | 2.6 |

Same assay, conditions: AlphaScreen; biotin-tagged human Kras loaded with GDP, His-tagged human SOS1; read-out: KRAS G12D-SOS PPI IC50

| IC50 [nM] | Compound |
| --- | --- |
| 19 | CC[C@H](C)[C@@H]1NC(=O)[C@H](C)N(C)C(=O)C[C@@H](C(=O)N2CCCC2)NC(=O)[C@H](CC(C)C)N(C)C(=O)[C@H](Cc2ccccc2)N(C)C(=O)[C@@H]2CCCN2C(=O)[C@H](CCc2ccc(C(F)(F)F)cc2F)NC(=O)CN(C)C(=O)[C@H](Cc2ccc(Cl)cc2)N(C)C(=O)CN(C)C(=O)CN(C)C1=O [Compound 2096, (3S,9S,18S,21S,25S,28S,31S,34S)-31-benzyl-9-[(4-chlorophenyl)methyl]-3-[2-[2-fluoro-4-(trifluoromethyl)phenyl]ethyl]-28-isobutyl-7,10,13,16,21,22,29,32-octamethyl-18-[(1S)-1-methylpropyl]-25-(pyrrolidine-1-carbonyl)-1,4,7,10,13,16,19,22,26,29,32-undecazabicyclo[32.3.0]heptatriacontane-2,5,8,11,14,17,20,23,27,30,33-undecone] ([NMeA]I[Sar][Sar][NMePhe(4-Cl)][Sar][X71]P[NMeF][NMeL]D-Pyrrolidide; lactam N-11) |
| 8 | CC[C@H](C)[C@@H]1NC(=O)[C@H](CC(C)C)N(C)C(=O)C[C@@H](C(=O)N2CCOCC2)N(C)C(=O)[C@H](C2CCCC2)N(C)C(=O)C2(CCCC2)NC(=O)[C@H](CCC(=O)N2CC(F)(F)C2)N(C)C(=O)[C@H](CCc2ccc(C(F)(F)F)c(Cl)c2)NC(=O)CN(C)C(=O)[C@H](CC2CCCCC2)N(C)C(=O)[C@@H]2CCN2C(=O)[C@H](C)N(C)C1=O [Compound 2098] ([NMeL]I[NMeA][Aze][NMeCha][Sar][hPhe(3-Cl-4-CF3)][NMeE](Azetidine(3,3-F2))[Ac5c][NMeGly(cPent)][NMeD]-Morpholide; lactam N-11) |
| 53 | CC[C@H](C)[C@@H]1NC(=O)[C@H](CC(C)C)N(C)C(=O)C[C@@H](C(=O)N2CCC(F)(F)CC2)N(C)C(=O)[C@H](CC(C)C)NC(=O)C(C)(C)N(C)C(=O)[C@H](Cc2ccc(OC)cc2)NC(=O)[C@H](Cc2cccc(I)c2)NC(=O)CN(C)C(=O)[C@H](Cc2ccc(C)cc2)N(C)C(=O)CN(C)C(=O)CN(C)C1=O [Compound 2101, (3S,9S,12S,18S,27S,30S,34S)-34-(4,4-difluoropiperidine-1-carbonyl)-12-[(3-iodophenyl)methyl]-3,30-diisobutyl-9-[(4-methoxyphenyl)methyl]-1,6,6,7,16,19,22,25,31-nonamethyl-27-[(1S)-1-methylpropyl]-18-(p-tolylmethyl)-1,4,7,10,13,16,19,22,25,28,31-undecazacyclotetratriacontane-2,5,8,11,14,17,20,23,26,29,32-undecone] ([NMeL]I[Sar][Sar][NMePhe(4-Me)][Sar][Phe(3-I)]Y(Me)[NMeAib]L[NMeD]-{N(CH2CH2)2CF2}; lactam N-11) |
| 8.3 | CC[C@H](C)[C@@H]1NC(=O)[C@H](CC(C)C)N(C)C(=O)C[C@@H](C(=O)N2CCOCC2)N(C)C(=O)[C@H](C2CCCC2)N(C)C(=O)C2(CCCC2)NC(=O)[C@H](CCC(=O)N2CCC2)N(C)C(=O)[C@H](CCc2ccc(C(F)(F)F)c(Cl)c2)NC(=O)CN(C)C(=O)[C@H](CC2CCCCC2)N(C)C(=O)[C@@H]2CCN2C(=O)[C@H](C)N(C)C1=O [Compound 2103] ([NMeL]I[NMeA][Aze][NMeCha][Sar][hPhe(3-Cl-4-CF3)][NMeE](Azetidin(1-yl))[Ac5c][NMeGly(cPent)][NMeD]-Morpholide; lactam N-11) |
| 10 | CC[C@H](C)[C@@H]1NC(=O)[C@H](CC(C)C)N(C)C(=O)C[C@@H](C(=O)N2CCOCC2)N(C)C(=O)[C@H](C2CCCC2)N(C)C(=O)C2(CCCC2)NC(=O)[C@H](CCC(=O)N2CCCC2)N(C)C(=O)[C@H](CCc2ccc(C(F)(F)F)c(Cl)c2)NC(=O)CN(C)C(=O)[C@H](CC2CCCCC2)N(C)C(=O)[C@@H]2CCN2C(=O)[C@H](C)N(C)C1=O [Compound 2104] ([NMeL]I[NMeA][Aze][NMeCha][Sar][hPhe(3-Cl-4-CF3)][NMeE](Pyrrolidide)[Ac5c][NMeGly(cPent)][NMeD]-Morpholide; lactam N-11) |
| 2 | CC[C@H](C)[C@@H]1NC(=O)[C@H](CC(C)C)N(C)C(=O)C[C@@H](C(=O)N(C)C)N(C)C(=O)[C@H](C2CCCC2)N(C)C(=O)C2(CCCC2)NC(=O)[C@H](CC(=O)N(C)C)N(C)C(=O)[C@H](CCc2ccc(C(F)(F)F)c(Cl)c2)NC(=O)CN(C)C(=O)[C@H](CC2CCCCC2)N(C)C(=O)[C@@H]2CCN2C(=O)[C@H](C)N(C)C1=O [Compound 2106, (3S,6S,9S,13S,16S,22S,25S,31S,34S)-25-[2-[3-chloro-4-(trifluoromethyl)phenyl]ethyl]-31-(cyclohexylmethyl)-16-cyclopentyl-22-[2-(dimethylamino)-2-oxo-ethyl]-9-isobutyl-N,N,3,4,10,14,17,23,29,32-decamethyl-6-[(1S)-1-methylpropyl]-2,5,8,11,15,18,21,24,27,30,33-undecaoxo-spiro[1,4,7,10,14,17,20,23,26,29,32-undecazabicyclo[32.2.0]hexatriacontane-19,1-cyclopentane]-13-carboxamide] ([NMeL]I[NMeA][Aze][NMeCha][Sar][hPhe(3-Cl-4-CF3)][NMeD](NMe2)[Ac5c][NMeGly(cPent)][NMeD]-NMe2; lactam N-11) |
| 4.8 | CC[C@H](C)[C@@H]1NC(=O)[C@H](CC(C)C)N(C)C(=O)C[C@@H](C(=O)N2CCOCC2)N(C)C(=O)[C@H](C2CCCC2)N(C)C(=O)C2(CCCC2)NC(=O)[C@H](CCC(=O)N2CCOCC2)N(C)C(=O)[C@H](CCc2ccc(C(F)(F)F)c(Cl)c2)NC(=O)CN(C)C(=O)[C@H](CC2CCCCC2)N(C)C(=O)[C@@H]2CCN2C(=O)[C@H](C)N(C)C1=O [Compound 2107] ([NMeL]I[NMeA][Aze][NMeCha][Sar][hPhe(3-Cl-4-CF3)][NMeE](Morpholide)[Ac5c][NMeGly(cPent)][NMeD]-Morpholide; lactam N-11) |

| Compound | IC50 [nM] |
| --- | --- |
| CC[C@H](C)[C@@H]1NC(=O)[C@H](C)N(C)C(=O)C[C@@H](C)NC(=O)[C@H](CC(C)C)N(C)C(=O)[C@H](Cc2ccccc2)N(C)C(=O)[C@H](CC(C)C)NC(=O)[C@H](CCc2ccc(C(F)(F)F)c(F)c2)NC(=O)CN(C)C(=O)[C@H](Cc2ccc(Cl)cc2)N(C)C(=O)CN(C)C(=O)CN(C)C1=O [Compound 2093] (cyclo(I[Sar][Sar][NMePhe(4-Cl)][Sar][hPhe(3-F,4-CF3)]L[NMeF][NMeL][d(β3hA)][NMeA])) | 37 |
| CC[C@H](C)[C@@H]1NC(=O)[C@H](C)N(C)C(=O)C[C@@H](C)NC(=O)[C@H](CC(C)C)N(C)C(=O)[C@H](Cc2ccccc2)N(C)C(=O)[C@H](CC(C)C)NC(=O)[C@H](CCc2cc(Cl)ccc2F)NC(=O)CN(C)C(=O)[C@H](Cc2ccc(Cl)cc2)N(C)C(=O)CN(C)C(=O)CN(C)C1=O [Compound 2094] (cyclo(I[Sar][Sar][NMePhe(4-Cl)][Sar][X29]L[NMeF][NMeL][d(β3hA)][NMeA])) | 200 |
| CC[C@H](C)[C@@H]1NC(=O)[C@H](C)N(C)C(=O)C[C@@H](C)NC(=O)[C@H](CC(C)C)N(C)C(=O)[C@H](Cc2ccccc2)N(C)C(=O)[C@H](CC(C)C)NC(=O)[C@H](CCc2cccc(C(F)(F)F)c2)NC(=O)CN(C)C(=O)[C@H](Cc2ccc(Cl)cc2)N(C)C(=O)CN(C)C(=O)CN(C)C1=O [Compound 2095] (cyclo(I[Sar][Sar][NMePhe(4-Cl)][Sar][X56]L[NMeF][NMeL][d(β3hA)][NMeA])) | 240 |
